Tests used:
[1] = target: B2 bradykinin receptor (Homo sapiens) (UniProt P30411); test: B2 (h) Eurofins-Cerep binding assay; parameters: ligand concentration 0.3 nM; details: filed as agonist, Compound concentration 10.0 uM
[2] = target: T1, Muscarinic acetylcholine receptor M4 (Homo sapiens) (UniProt P08173); test: M4 (h) Eurofins-Cerep binding assay; parameters: ligand concentration 0.2 nM; details: filed as antagonist, Compound concentration 10.0 uM
T1 sequence (whole entry): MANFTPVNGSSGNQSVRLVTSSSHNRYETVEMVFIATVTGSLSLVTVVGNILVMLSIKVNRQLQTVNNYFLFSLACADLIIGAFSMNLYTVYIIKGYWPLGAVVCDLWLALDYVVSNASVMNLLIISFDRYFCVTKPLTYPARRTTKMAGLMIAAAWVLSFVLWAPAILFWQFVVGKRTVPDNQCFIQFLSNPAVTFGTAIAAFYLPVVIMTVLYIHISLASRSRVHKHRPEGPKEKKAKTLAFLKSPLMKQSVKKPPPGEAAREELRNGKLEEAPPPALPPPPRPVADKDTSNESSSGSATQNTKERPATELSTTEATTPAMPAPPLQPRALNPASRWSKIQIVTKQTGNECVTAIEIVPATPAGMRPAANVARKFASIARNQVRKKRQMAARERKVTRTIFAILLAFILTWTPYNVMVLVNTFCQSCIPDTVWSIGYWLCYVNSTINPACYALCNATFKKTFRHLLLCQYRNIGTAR

[3] = target: Androgen receptor (Homo sapiens) (UniProt P10275); test: AR (h) Eurofins-Cerep binding assay; parameters: ligand concentration 1 nM; details: filed as agonist, Compound concentration 10.0 uM
[4] = test system: Tyrosine-protein kinase ABL1 (Homo sapiens), P00519 [Y253F]; details: Compound concentration 1000.0 nM
[5] = target: Activin receptor type-2A (Homo sapiens) (UniProt P27037); details: Compound concentration 1000.0 nM
[6] = target: RAC-alpha serine/threonine-protein kinase (Homo sapiens) (UniProt P31749); details: Compound concentration 1000.0 nM
[7] = target: 5'-AMP-activated protein kinase catalytic subunit alpha-2 (Homo sapiens) (UniProt P54646); details: Compound concentration 1000.0 nM
[8] = target: Aurora kinase A (Homo sapiens) (UniProt O14965); details: Compound concentration 1000.0 nM
[9] = target: Bone morphogenetic protein receptor type-2 (Homo sapiens) (UniProt Q13873); details: Compound concentration 1000.0 nM
[10] = target: Serine/threonine-protein kinase B-raf (Homo sapiens) (UniProt P15056); details: Compound concentration 1000.0 nM
[11] = target: Calcium/calmodulin-dependent protein kinase type IV (Homo sapiens) (UniProt Q16566); details: Compound concentration 1000.0 nM
[12] = target: Cyclin-dependent kinase 8 (Homo sapiens) (UniProt P49336); details: Compound concentration 1000.0 nM
[13] = target: Cyclin-dependent kinase-like 5 (Homo sapiens) (UniProt O76039); details: Compound concentration 1000.0 nM
[14] = target: Serine/threonine-protein kinase Chk1 (Homo sapiens) (UniProt O14757); details: Compound concentration 1000.0 nM
[15] = target: Macrophage colony-stimulating factor 1 receptor (Homo sapiens) (UniProt P07333); details: Compound concentration 1000.0 nM
[16] = target: Casein kinase II subunit alpha' (Homo sapiens) (UniProt P19784); details: Compound concentration 1000.0 nM
[17] = test system: Epidermal growth factor receptor (Homo sapiens), P00533 [UNDEFINED MUTATION]; details: Compound concentration 1000.0 nM
[18] = target: Ephrin type-A receptor 2 (Homo sapiens) (UniProt P29317); details: Compound concentration 1000.0 nM
[19] = target: Ephrin type-A receptor 6 (Homo sapiens) (UniProt Q9UF33); details: Compound concentration 1000.0 nM
[20] = target: Ephrin type-A receptor 8 (Homo sapiens) (UniProt P29322); details: Compound concentration 1000.0 nM
[21] = target: Ephrin type-B receptor 1 (Homo sapiens) (UniProt P54762); details: Compound concentration 1000.0 nM
[22] = target: G protein-coupled receptor kinase 3 (Homo sapiens) (UniProt P35626); details: Compound concentration 1000.0 nM
[23] = target: Mitogen-activated protein kinase kinase kinase kinase 1 (Homo sapiens) (UniProt Q92918); details: Compound concentration 1000.0 nM
[24] = target: Leucine-rich repeat serine/threonine-protein kinase 2 (Homo sapiens) (UniProt Q5S007); details: Compound concentration 1000.0 nM
[25] = target: Serine/threonine-protein kinase MARK2 (Homo sapiens) (UniProt Q7KZI7); details: Compound concentration 1000.0 nM
[26] = target: Dual specificity mitogen-activated protein kinase kinase 4 (Homo sapiens) (UniProt P45985); details: Compound concentration 1000.0 nM
[27] = target: Maternal embryonic leucine zipper kinase (Homo sapiens) (UniProt Q14680); details: Compound concentration 1000.0 nM
[28] = target: Serine/threonine-protein kinase MRCK alpha (Homo sapiens) (UniProt Q5VT25); details: Compound concentration 1000.0 nM
[29] = target: Serine/threonine-protein kinase MRCK beta (Homo sapiens) (UniProt Q9Y5S2); details: Compound concentration 1000.0 nM
[30] = target: Serine/threonine-protein kinase 4 (Homo sapiens) (UniProt Q13043); details: Compound concentration 1000.0 nM
[31] = target: Serine/threonine-protein kinase 3 (Homo sapiens) (UniProt Q13188); details: Compound concentration 1000.0 nM
[32] = target: Myosin-IIIb (Homo sapiens) (UniProt Q8WXR4); details: Compound concentration 1000.0 nM
[33] = target: Cyclin-dependent kinase 16 (Homo sapiens) (UniProt Q00536); details: Compound concentration 1000.0 nM
[34] = target: Cyclin-dependent kinase 17 (Homo sapiens) (UniProt Q00537); details: Compound concentration 1000.0 nM
[35] = target: Phosphatidylinositol 4,5-bisphosphate 3-kinase catalytic subunit delta isoform (Homo sapiens) (UniProt O00329); details: Compound concentration 1000.0 nM
[36] = target: Serine/threonine-protein kinase pim-3 (Homo sapiens) (UniProt Q86V86); details: Compound concentration 1000.0 nM
[37] = target: Membrane-associated tyrosine- and threonine-specific cdc2-inhibitory kinase (Homo sapiens) (UniProt Q99640); details: Compound concentration 1000.0 nM
[38] = target: Interferon-induced, double-stranded RNA-activated protein kinase (Homo sapiens) (UniProt P19525); details: Compound concentration 1000.0 nM
[39] = target: Tyrosine-protein kinase receptor TYRO3 (Homo sapiens) (UniProt Q06418); details: Compound concentration 1000.0 nM

Sequence of Ephrin type-A receptor 8 (Homo sapiens) (P29322 whole entry): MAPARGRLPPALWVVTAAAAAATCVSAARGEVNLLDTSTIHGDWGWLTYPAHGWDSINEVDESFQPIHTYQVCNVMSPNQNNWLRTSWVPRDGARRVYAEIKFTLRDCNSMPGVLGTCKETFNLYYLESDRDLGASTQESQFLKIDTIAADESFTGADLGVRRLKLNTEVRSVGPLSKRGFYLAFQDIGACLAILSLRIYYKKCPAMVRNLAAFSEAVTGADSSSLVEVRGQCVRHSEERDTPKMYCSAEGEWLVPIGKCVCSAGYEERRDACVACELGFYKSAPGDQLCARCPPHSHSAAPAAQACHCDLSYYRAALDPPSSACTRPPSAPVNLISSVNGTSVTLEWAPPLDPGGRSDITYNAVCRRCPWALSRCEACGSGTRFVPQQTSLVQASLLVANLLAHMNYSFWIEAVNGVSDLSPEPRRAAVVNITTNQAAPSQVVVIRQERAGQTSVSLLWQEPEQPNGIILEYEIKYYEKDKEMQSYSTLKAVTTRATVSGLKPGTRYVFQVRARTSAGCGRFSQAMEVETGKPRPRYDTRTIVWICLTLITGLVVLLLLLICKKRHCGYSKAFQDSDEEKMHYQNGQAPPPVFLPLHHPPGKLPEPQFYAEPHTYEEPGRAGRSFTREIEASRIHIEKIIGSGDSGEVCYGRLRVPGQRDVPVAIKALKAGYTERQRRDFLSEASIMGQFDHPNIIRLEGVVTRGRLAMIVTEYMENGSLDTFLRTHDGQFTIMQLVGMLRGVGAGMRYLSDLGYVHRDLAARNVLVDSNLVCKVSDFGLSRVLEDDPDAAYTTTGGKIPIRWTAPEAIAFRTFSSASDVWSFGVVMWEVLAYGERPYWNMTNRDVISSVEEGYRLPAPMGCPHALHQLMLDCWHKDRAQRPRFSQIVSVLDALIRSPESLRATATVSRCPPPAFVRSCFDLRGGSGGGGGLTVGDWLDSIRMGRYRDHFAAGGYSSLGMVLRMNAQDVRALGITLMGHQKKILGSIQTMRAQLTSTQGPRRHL
Sequence of Serine/threonine-protein kinase 3 (Homo sapiens) (Q13188 whole entry): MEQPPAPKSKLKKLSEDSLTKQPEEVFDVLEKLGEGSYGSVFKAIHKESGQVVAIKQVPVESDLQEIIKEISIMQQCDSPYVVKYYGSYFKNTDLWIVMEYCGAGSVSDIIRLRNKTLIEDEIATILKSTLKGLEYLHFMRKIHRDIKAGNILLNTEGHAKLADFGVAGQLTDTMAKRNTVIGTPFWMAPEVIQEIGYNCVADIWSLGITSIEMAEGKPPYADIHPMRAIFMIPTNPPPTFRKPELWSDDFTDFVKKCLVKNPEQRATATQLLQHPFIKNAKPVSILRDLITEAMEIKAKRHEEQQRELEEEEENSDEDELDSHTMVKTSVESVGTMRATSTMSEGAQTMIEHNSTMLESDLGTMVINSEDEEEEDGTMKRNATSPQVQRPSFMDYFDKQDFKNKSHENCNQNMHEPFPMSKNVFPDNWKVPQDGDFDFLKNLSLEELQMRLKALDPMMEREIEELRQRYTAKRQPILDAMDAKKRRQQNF
Sequence of Macrophage colony-stimulating factor 1 receptor (Homo sapiens) (P07333 whole entry): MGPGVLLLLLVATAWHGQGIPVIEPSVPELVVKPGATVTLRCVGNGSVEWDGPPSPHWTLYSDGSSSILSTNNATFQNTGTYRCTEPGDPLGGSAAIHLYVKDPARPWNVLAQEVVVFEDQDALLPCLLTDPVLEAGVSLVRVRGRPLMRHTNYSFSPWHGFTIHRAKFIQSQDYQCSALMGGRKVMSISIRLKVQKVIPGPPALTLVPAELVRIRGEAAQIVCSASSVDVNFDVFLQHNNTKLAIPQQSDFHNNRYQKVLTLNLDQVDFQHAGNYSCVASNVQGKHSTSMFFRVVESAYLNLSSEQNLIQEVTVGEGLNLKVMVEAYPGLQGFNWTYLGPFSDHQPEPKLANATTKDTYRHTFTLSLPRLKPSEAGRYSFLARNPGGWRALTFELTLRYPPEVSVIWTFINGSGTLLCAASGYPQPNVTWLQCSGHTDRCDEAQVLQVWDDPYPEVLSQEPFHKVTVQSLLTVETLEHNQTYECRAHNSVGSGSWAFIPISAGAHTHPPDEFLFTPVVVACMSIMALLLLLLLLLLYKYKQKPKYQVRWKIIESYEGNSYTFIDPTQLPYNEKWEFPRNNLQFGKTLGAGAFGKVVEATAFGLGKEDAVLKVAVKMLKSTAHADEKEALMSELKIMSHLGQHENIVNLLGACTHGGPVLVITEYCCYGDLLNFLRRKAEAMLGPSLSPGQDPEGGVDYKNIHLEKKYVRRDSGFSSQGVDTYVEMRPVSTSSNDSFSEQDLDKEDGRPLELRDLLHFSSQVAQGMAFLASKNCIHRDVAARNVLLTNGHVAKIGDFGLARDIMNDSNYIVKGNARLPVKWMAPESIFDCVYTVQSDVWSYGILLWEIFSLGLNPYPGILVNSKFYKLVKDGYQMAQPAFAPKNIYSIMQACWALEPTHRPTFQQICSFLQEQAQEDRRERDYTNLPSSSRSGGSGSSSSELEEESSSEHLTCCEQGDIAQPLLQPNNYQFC
Sequence of Phosphatidylinositol 4,5-bisphosphate 3-kinase catalytic subunit delta isoform (Homo sapiens) (O00329 whole entry, canonical isoform): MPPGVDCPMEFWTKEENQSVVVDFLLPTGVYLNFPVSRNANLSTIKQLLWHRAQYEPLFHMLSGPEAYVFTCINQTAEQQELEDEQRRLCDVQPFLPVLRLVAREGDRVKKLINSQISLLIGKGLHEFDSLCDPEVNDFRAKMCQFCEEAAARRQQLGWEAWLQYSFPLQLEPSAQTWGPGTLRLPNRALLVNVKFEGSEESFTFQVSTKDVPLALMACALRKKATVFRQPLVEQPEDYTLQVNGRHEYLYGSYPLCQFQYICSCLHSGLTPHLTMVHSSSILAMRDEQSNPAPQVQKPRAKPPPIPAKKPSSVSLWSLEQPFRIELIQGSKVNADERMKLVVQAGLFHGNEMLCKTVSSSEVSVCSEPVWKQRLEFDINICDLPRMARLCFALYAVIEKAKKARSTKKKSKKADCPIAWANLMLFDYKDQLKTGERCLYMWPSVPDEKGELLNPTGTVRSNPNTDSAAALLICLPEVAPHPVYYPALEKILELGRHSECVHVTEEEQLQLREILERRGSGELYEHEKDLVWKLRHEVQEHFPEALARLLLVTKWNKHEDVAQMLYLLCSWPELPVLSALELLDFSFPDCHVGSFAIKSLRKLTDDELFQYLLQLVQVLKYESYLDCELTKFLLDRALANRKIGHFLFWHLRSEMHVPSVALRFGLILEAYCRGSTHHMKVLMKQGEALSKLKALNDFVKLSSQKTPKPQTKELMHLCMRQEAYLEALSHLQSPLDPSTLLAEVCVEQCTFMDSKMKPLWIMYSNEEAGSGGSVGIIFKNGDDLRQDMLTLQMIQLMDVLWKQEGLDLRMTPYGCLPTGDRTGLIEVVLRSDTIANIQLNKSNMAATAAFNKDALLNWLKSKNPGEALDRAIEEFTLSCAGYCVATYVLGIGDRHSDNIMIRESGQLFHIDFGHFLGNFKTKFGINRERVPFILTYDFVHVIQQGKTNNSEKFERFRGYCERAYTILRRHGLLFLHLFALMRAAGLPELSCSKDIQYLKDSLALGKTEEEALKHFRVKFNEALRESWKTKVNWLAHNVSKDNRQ
Sequence of Cyclin-dependent kinase-like 5 (Homo sapiens) (O76039 whole entry): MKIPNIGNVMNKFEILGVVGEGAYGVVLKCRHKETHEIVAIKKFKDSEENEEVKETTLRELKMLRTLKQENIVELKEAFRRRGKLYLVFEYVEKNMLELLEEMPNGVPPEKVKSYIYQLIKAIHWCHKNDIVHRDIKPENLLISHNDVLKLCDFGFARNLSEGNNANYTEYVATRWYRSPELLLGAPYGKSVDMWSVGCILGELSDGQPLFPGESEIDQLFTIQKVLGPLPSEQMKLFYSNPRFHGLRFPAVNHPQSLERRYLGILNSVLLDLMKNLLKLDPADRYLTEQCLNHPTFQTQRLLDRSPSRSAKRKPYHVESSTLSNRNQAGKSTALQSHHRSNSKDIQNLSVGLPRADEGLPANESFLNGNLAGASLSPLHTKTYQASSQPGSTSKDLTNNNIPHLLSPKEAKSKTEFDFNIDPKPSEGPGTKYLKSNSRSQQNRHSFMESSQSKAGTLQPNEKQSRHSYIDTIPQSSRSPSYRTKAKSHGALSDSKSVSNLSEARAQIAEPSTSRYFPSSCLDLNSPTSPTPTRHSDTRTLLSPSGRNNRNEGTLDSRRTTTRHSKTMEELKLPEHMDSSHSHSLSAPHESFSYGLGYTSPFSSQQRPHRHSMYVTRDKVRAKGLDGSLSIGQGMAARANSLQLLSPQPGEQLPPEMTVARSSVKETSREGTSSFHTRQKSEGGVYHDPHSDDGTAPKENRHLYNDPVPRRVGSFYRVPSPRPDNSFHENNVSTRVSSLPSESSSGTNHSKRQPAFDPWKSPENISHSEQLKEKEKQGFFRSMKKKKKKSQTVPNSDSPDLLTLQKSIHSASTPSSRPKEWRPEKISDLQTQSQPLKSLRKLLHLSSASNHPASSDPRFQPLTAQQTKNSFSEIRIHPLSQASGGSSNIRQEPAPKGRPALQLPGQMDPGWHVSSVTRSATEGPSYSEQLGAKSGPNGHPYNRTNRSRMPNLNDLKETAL
Sequence of 5'-AMP-activated protein kinase catalytic subunit alpha-2 (Homo sapiens) (P54646 whole entry, looked up): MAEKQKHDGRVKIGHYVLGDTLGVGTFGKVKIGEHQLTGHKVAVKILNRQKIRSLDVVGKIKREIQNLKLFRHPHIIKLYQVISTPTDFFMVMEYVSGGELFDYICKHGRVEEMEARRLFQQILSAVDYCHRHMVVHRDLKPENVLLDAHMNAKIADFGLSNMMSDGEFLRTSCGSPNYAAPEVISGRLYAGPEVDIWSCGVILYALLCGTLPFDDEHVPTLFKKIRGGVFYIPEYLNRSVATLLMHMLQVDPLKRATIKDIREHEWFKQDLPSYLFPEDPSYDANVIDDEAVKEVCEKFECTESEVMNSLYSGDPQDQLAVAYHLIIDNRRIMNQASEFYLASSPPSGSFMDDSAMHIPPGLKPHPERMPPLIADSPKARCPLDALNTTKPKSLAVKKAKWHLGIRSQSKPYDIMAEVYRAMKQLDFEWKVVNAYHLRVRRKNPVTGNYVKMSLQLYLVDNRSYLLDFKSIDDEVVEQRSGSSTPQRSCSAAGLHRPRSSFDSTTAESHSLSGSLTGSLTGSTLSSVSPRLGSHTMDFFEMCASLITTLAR

SMILES	% Inhibition of Control Specific Binding (Mean n=2) [1]	% Inhibition of Control Specific Binding (Mean n=2) [2]	% Inhibition of Control Specific Binding (Mean n=2) [3]	residual activity [4]	residual activity [5]	residual activity [6]	residual activity [7]	residual activity [8]	residual activity [9]	residual activity [10]	residual activity [11]	residual activity [12]	residual activity [13]	residual activity [14]	residual activity [15]	residual activity [16]	residual activity [17]	residual activity [18]	residual activity [19]	residual activity [20]	further results
O=C(NS(=O)(=O)c1ccc(NCC2CCOCC2)c([N+](=O)[O-])c1)c1ccc(N2CCN(Cc3ccc(C(F)(F)F)cc3-c3ccc(Cl)cc3)CC2)cc1Oc1cnc2[nH]ccc2c1 [A-1210227]	-2.1%	12.3%	-0.7%	96%	93%	74%	100%	96%	100%	100%	100%	100%	74%	100%	85%	100%	96%	92%	100%	84%	residual activity [21]: 100%; residual activity [22]: 78%; residual activity [23]: 98%; residual activity [24]: 100%; residual activity [25]: 100%; residual activity [26]: 100%; residual activity [27]: 73%; residual activity [28]: 96%; residual activity [29]: 94%; residual activity [30]: 94%; residual activity [31]: 100%; residual activity [32]: 100%; residual activity [33]: 67%; residual activity [34]: 100%; residual activity [35]: 60%; residual activity [36]: 100%; residual activity [37]: 90%; residual activity [38]: 94%; residual activity [39]: 92%
CO[C@H]1CC[C@H](CNc2ccc(S(=O)(=O)NC(=O)c3ccc(N4CCN(CC5=C(c6ccc(Cl)cc6)CC(C)(C)CC5)CC4)cc3Oc3cnc4[nH]ccc4c3)cc2[N+](=O)[O-])CC1 [A-1211212]	-15.7%	20.6%	-8.6%	100%	91%	72%	93%	100%	100%	100%	100%	91%	74%	90%	88%	100%	100%	100%	99%	84%	residual activity [21]: 84%; residual activity [22]: 79%; residual activity [23]: 69%; residual activity [24]: 100%; residual activity [25]: 100%; residual activity [26]: 98%; residual activity [27]: 67%; residual activity [28]: 56%; residual activity [29]: 100%; residual activity [30]: 84%; residual activity [31]: 85%; residual activity [32]: 69%; residual activity [33]: 61%; residual activity [34]: 99%; residual activity [35]: 75%; residual activity [36]: 74%; residual activity [37]: 100%; residual activity [38]: 90%; residual activity [39]: 84%
